Source: US10253018B2, “Apoptosis signal-regulating kinase 1 inhibitors and methods of use thereof” (ENANTA PHARMACEUTICALS, INC., priority 2017, dated 2019)

These compounds were tested against ASK1 (Homo sapiens (Human), UniProt Q99683) (assay: HTRF KinEASE Assay (TR-FRET), inhibition of ASK1). Details: 5 nM ASK1 kinase, 1 uM STK3 peptide substrate, 100 uM ATP, 3 hours.
ASK1, sequence (Q99683 whole entry): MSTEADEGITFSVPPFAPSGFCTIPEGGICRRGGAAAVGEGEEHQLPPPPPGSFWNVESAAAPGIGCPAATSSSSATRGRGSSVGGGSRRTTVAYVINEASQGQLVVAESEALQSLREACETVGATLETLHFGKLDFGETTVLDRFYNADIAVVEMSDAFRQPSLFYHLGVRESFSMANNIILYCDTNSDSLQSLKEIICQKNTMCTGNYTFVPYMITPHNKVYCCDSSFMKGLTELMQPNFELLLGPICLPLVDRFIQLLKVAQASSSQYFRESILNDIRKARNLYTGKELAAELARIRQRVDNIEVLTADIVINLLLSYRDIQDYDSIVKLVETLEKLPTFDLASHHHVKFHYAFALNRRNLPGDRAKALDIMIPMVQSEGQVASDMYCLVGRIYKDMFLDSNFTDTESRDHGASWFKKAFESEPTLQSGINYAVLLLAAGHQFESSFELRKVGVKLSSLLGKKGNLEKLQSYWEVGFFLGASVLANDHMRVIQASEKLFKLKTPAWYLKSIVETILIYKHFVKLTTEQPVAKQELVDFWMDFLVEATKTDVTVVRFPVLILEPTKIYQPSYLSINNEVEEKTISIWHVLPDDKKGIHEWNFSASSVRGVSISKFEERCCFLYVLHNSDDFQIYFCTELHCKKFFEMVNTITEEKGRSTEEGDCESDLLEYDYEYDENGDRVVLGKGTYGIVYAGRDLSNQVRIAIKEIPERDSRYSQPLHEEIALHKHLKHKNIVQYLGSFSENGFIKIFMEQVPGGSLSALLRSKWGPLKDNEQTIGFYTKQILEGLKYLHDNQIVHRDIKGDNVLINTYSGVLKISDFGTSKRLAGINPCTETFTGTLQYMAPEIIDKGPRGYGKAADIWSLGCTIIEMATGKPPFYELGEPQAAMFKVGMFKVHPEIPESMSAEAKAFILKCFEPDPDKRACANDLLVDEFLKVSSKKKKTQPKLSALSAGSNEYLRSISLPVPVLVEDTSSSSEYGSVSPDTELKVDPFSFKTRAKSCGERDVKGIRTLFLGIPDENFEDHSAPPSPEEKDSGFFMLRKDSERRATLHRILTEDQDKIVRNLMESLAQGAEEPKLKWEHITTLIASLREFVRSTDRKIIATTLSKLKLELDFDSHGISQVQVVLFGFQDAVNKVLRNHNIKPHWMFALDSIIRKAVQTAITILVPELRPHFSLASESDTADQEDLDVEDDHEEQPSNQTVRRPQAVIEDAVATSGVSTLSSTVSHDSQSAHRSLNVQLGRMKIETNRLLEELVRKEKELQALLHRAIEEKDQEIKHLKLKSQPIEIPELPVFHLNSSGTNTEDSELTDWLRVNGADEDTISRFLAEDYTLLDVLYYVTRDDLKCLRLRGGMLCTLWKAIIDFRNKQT
Format: biochemical
Excerpt: Assays HTRF® KinEASE™ Assay ASK1 was purchased from Thermofisher (Catalogue # PV4011), ATP was purchased from Sigma (Catalogue # A7699), HTRF® KinEASE™ Assay System was obtained from Cisbio (Bedford, Mass.). ½ Area plate was purchased from Perkin Elmer (Catalogue # #6005560). HTRF® KinEASE™-STK is a generic method for measuring serine/threonine kinase activities using a time-resolved fluorescence resonance energy transfer (TR-FRET) immunoassay. […] The STK3-antibody labeled with Eu^3+-Cryptate and 125 nM streptavidin-XL665 are mixed in a single addition with stop reagents provided by the Cisbio kit used to stop the kinase reaction. Fluorescence is detected using an Envision Multilabeled 2014 reader from PerkinElmer. The Fluorescence is measured at 615 nm (Cryptate) and 665 nm (XL665) and a ratio of 665 nm/615 nm is calculated for each well. The resulting TR-FRET is proportional to the phosphorylation level. Staurosporine was used as the positive control. IC50 was determined by XLfit 5.3.
Work on `CC(C)n1cnnc1-c1cccc(NC(=O)c2ccc3nccnc3c2)n1` [Example 1] yielded an IC50 of 0.1 to 1 µM. Compound `COc1nc2ccc(C(=O)Nc3cccc(-c4nncn4C(C)C)n3)cc2nc1N1CCOCC1` [Example 2] has an IC50 of 0.1 to 1 µM. With `COc1nc2cc(F)c(C(=O)Nc3cccc(-c4nncn4C(C)C)n3)cc2nc1N1CCCCC1` [Example 3] the IC50 was 0.01 to 0.1 µM. For `CC(C)Nc1nc2cc(C(=O)Nc3cccc(-c4nncn4C(C)C)n3)ccc2nc1OC(C)C` [Example 4], the IC50 was 0.01 to 0.1 µM. Compound `COc1nc2ccc(C(=O)Nc3cccc(-c4nncn4C(C)C)n3)cc2nc1N1CCCCC1` [Example 5] has an IC50 of 0.1 to 1 µM. With `CC(C)Oc1nc2ccc(C(=O)Nc3cccc(-c4nncn4C(C)C)n3)cc2nc1N1CCCCC1` [Example 6] the IC50 was greater than 1 µM. For `CC(C)Oc1nc2ccc(C(=O)Nc3cccc(-c4nncn4C(C)C)n3)cc2nc1N1CCOCC1` [Example 7], the IC50 was 0.1 to 1 µM. For `COc1nc2ccc(C(=O)Nc3cccc(-c4nncn4C(C)C)n3)cc2nc1NC(C)C` [Example 8], the IC50 was 0.1 to 1 µM. `CC(C)Oc1nc2cc(F)c(C(=O)Nc3cccc(-c4nnnn4C(C)C)n3)cc2nc1N(C)C(C)C` [Example 9] showed an IC50 greater than 1 µM. Compound `CC(C)Oc1nc2cc(F)c(C(=O)Nc3cccc(-c4nnnn4C(C)C)n3)cc2nc1OC(C)C` [Example 10] has an IC50 greater than 1 µM. `CC(C)Oc1nc2cc(F)c(C(=O)Nc3cccc(-c4nncn4C(C)C)n3)cc2nc1OC(C)C` [Example 11] showed an IC50 of 0.1 to 1 µM. `CC(C)CN(C)c1nc2cc(C(=O)Nc3cccc(-c4nnnn4C(C)C)n3)c(F)cc2nc1OC(C)C` [Example 12] gave an IC50 greater than 1 µM. With `CC(C)CN(C)c1nc2cc(C(=O)Nc3cccc(-c4nncn4C(C)C)n3)c(F)cc2nc1OC(C)C` [Example 13] the IC50 was 0.1 to 1 µM. For `CC(C)Nc1nc2cc(C(=O)Nc3cccc(-c4nnnn4C(C)C)n3)c(F)cc2nc1OC(C)C` [Example 14], the IC50 was greater than 1 µM. For `CC(C)Nc1nc2cc(C(=O)Nc3cccc(-c4nncn4C(C)C)n3)c(F)cc2nc1OC(C)C` [Example 15], the IC50 was 0.01 to 0.1 µM. `COc1nc2cc(F)c(C(=O)Nc3cccc(-c4nnnn4C(C)C)n3)cc2nc1N1CCCCC1` [Example 16] was tested, and the IC50 was 0.1 to 1 µM. `CC(C)Nc1nc2cc(C(=O)Nc3cccc(-c4nnnn4[C@@H](C)CO)n3)c(F)cc2nc1OC(C)C` [Example 17] showed an IC50 greater than 1 µM. Work on `CC(C)n1cnnc1-c1cccc(NC(=O)c2cc3ccccc3cn2)n1` [Example 18] yielded an IC50 of 0.001 to 0.01 µM. Work on `CC(C)n1cnnc1-c1cccc(NC(=O)c2cc3cc(Br)ccc3cn2)n1` [Example 19, 6-bromo-N-(6-(4-isopropyl-4H-1,2,4-triazol-3-yl)pyridin-2-yl)isoquinoline-3-carboxamide] yielded an IC50 of 0.001 to 0.01 µM. With `CC(C)n1nnnc1-c1cccc(NC(=O)c2cc3cc(Br)ccc3cn2)n1` [Example 20] the IC50 was greater than 1 µM. With `CC(C)n1cnnc1-c1cccc(NC(=O)c2cc3cc(N4CCCCC4)ccc3cn2)n1` [Example 21] the IC50 was 0.001 to 0.01 µM. Work on `CC(C)n1cnnc1-c1cccc(NC(=O)c2cc3cc(-n4cnc(C5CC5)c4)ccc3cn2)n1` [Example 22] yielded an IC50 of 0.001 to 0.01 µM. For `CCn1nccc1-c1ccc2cnc(C(=O)Nc3cccc(-c4nncn4C(C)C)n3)cc2c1` [Example 23], the IC50 was 0.01 to 0.1 µM. For `CC(C)n1cnnc1-c1cccc(NC(=O)c2ccc3ccc(N4CCOCC4)nc3c2)n1` [Example 24], the IC50 was 0.1 to 1 µM. For `CC(C)n1cnnc1-c1cccc(NC(=O)c2ccc3ccc(N(C)C)nc3c2)n1` [Example 25], the IC50 was greater than 1 µM. With `CC(C)n1cnnc1-c1cccc(NC(=O)c2ccc3ccc(N4CCCCC4)nc3c2)n1` [Example 26] the IC50 was 0.01 to 0.1 µM. `CC(C)n1cnnc1-c1cccc(NC(=O)c2ccc3ccc(N4CCN(C(C)(C)C)CC4)nc3c2)n1` [Example 27] gave an IC50 greater than 1 µM. `CC(C)n1cnnc1-c1cccc(NC(=O)c2ccc3ccc(NC4CCCCC4)nc3c2)n1` [Example 28] showed an IC50 greater than 1 µM. In the case of `CC(C)n1cnnc1-c1cccc(NC(=O)c2ccc3ccc(N4CC5(COC5)C4)nc3c2)n1` [Example 29], the IC50 is reported as greater than 1 µM. For `CC(C)n1cnnc1-c1cccc(NC(=O)c2ccc3ccc(N4CC5CCC(C4)O5)nc3c2)n1` [Example 30], the IC50 was 0.1 to 1 µM. For `CCN(Cc1ccccc1)c1ccc2ccc(C(=O)Nc3cccc(-c4nncn4C(C)C)n3)cc2n1` [Example 31], the IC50 was greater than 1 µM. With `COCCNc1ccc2ccc(C(=O)Nc3cccc(-c4nncn4C(C)C)n3)cc2n1` [Example 33] the IC50 was 0.01 to 0.1 µM. `CC(C)n1cnnc1-c1cccc(NC(=O)c2ccc3ccc(Cl)nc3c2)n1` [Example 34] was tested, and the IC50 was 0.1 to 1 µM. Compound `CC(C)n1cnnc1-c1cccc(NC(=O)c2ccc3cccnc3c2)n1` [Example 35] has an IC50 greater than 1 µM. `CC(C)n1cnnc1-c1cccc(NC(=O)c2ccc3cc(Br)cnc3c2)n1` [Example 36] showed an IC50 of 0.1 to 1 µM. Work on `CC(C)n1cnnc1-c1cccc(NC(=O)c2ccc3cc(-c4ccc(C(C)(C)C)cc4)cnc3c2)n1` [Example 37] yielded an IC50 greater than 1 µM. `CC(C)n1cnnc1-c1cccc(NC(=O)c2ccc3cc(N4CCOCC4)cnc3c2)n1` [Example 38] gave an IC50 of 0.01 to 0.1 µM. For `CC(C)n1cnnc1-c1cccc(NC(=O)c2ccc3ccccc3c2)n1` [Example 39], the IC50 was 0.1 to 1 µM. `CC(C)n1cnnc1-c1cccc(NC(=O)c2cc3ccccc3cc2F)n1` [Example 40] was tested, and the IC50 was 0.1 to 1 µM. Work on `CC(C)n1nnnc1-c1cccc(NC(=O)c2cc3ccccc3cc2F)n1` [Example 41] yielded an IC50 greater than 1 µM.
